Laboratory results taken from ChEMBL document CHEMBL1134610, “Flavonolignan and flavone inhibitors of a Staphylococcus aureus multidrug resistance pump: structure-activity relationships” (2001).
Calls of active or inactive are those of the source. The calls are words filed in the database; no cut-off is given here.

What was measured:
[1] = test system: Staphylococcus aureus; assay: Minimum inhibitory concentration, that inhibits growth of Staphylococcus aureus in the presence of subinhibitory (30 ug/mL) Berberine; assay type: functional
[2] = test system: Staphylococcus aureus; assay: Minimum inhibitory concentration, that inhibits growth of Staphylococcus aureus in the presence of subinhibitory (30 ug/mL) Berberine; Inactive; assay type: functional, organism-based
[3] = test system: Staphylococcus aureus; assay: Minimum inhibitory concentration, that inhibits growth of Staphylococcus aureus in the presence of subinhibitory (30 ug/mL) Berberine Inactive; assay type: functional, organism-based

Compound: COc1cc([C@H]2Oc3cc(-c4cc(=O)c5c(OC(C)=O)cc(OC(C)=O)cc5o4)ccc3O[C@@H]2COC(C)=O)ccc1OC(C)=O
- MIC [1]: 0.1 µg/mL

Compound: COc1cc([C@H]2Oc3cc(-c4cc(=O)c5ccc(O)cc5o4)ccc3O[C@@H]2CO)ccc1O
- MIC [1]: 0.8 µg/mL

Compound: COc1ccc(-c2cc(=O)c3ccccc3o2)cc1 [4'-METHOXYFLAVONE]
- MIC [1]: 6.3 µg/mL

Compound: COc1cc([C@H]2Oc3cc([C@H]4Oc5cc(O)cc(O)c5C(=O)[C@@H]4O)ccc3O[C@@H]2CO)ccc1O [SILYBIN A]
- MIC [1]: 12.5 µg/mL

Compound: COc1cc([C@H]2Oc3cc([C@@H]4CC(=O)c5c(O)cc(O)cc5O4)cc(OC)c3O[C@@H]2CO)ccc1O
- MIC [1]: 1.9 µg/mL

Compound: COc1cc(OC)c2c(=O)cc(-c3ccccc3)oc2c1 [CHRYSIN DIMETHYL ETHER]
- MIC [1]: 25 µg/mL

Compound: C=CCOc1ccc(-c2cc(=O)c3ccccc3o2)cc1
- MIC [1]: 6.3 µg/mL

Compound: COc1cc([C@H]2Oc3cc([C@@H]4CC(=O)c5c(O)cc(O)cc5O4)ccc3O[C@@H]2CO)ccc1O
- MIC [1]: 3.1 µg/mL

Compound: O=c1cc(-c2ccccc2)oc2cc(O)cc(O)c12 [CHRYSIN]
- MIC [1]: 25 µg/mL

Compound: COc1cc([C@H]2Oc3ccc(-c4cc(=O)c5c(O)cc(O)cc5o4)cc3O[C@@H]2CO)cc(OC)c1O
- MIC [1]: 7.8 µg/mL

Compound: CC(=O)Oc1cc(OC(C)=O)c2c(=O)cc(-c3ccc(OC(C)=O)c(OC(C)=O)c3)oc2c1
- IA [2]: inactive

Compound: O=c1c(O)c(-c2ccc(O)c(O)c2)oc2cc(O)cc(O)c12
- IA [2]: inactive

Compound: COc1cc([C@H]2Oc3cc(-c4cc(=O)c5ccc(OC(C)=O)cc5o4)ccc3O[C@@H]2COC(C)=O)ccc1OC(C)=O
- MIC [1]: 1.6 µg/mL

Compound: COc1cc([C@H]2Oc3cc(-c4cc(=O)c5c(O)cc(O)cc5o4)cc(OC)c3O[C@@H]2CO)ccc1O
- MIC [1]: 2 µg/mL

Compound: O=c1cc(-c2ccc(O)cc2)oc2ccccc12
- IA [2]: inactive

Compound: COc1cc([C@H]2Oc3cc(-c4oc5cc(O)ccc5c(=O)c4O)ccc3O[C@@H]2CO)ccc1O
- MIC [1]: 163 µg/mL

Compound: O=c1cc(-c2ccc(OCCO)cc2)oc2ccccc12
- MIC [1]: 25 µg/mL

Compound: COc1cc([C@@H]2Oc3ccc4c(=O)cc(-c5ccc(O)cc5)oc4c3O[C@H]2CO)ccc1O
- MIC [1]: 0.6 µg/mL

Compound: COc1cc([C@H]2Oc3cc(-c4oc5cc(OC(C)=O)cc(OC(C)=O)c5c(=O)c4OC(C)=O)ccc3O[C@@H]2COC(C)=O)ccc1OC(C)=O
- IA [3]: inactive

Compound: CC(C)Oc1ccc(-c2cc(=O)c3ccccc3o2)cc1
- MIC [1]: 1.9 µg/mL

Compound: COc1cc([C@H]2Oc3cc(-c4cc(=O)c5ccccc5o4)ccc3O[C@@H]2CO)ccc1O
- MIC [1]: 0.08 µg/mL

Compound: COc1ccc(-c2cc(=O)c3c(O)cc(O)cc3o2)cc1O [DIOSMETIN]
- MIC [1]: 15 µg/mL

Compound: O=c1cc(-c2ccc(O)cc2)oc2c(O)c(O)ccc12
- IA [2]: inactive

Compound: COc1cc([C@H]2Oc3cc(-c4oc5cc(O)cc(O)c5c(=O)c4O)ccc3O[C@@H]2CO)ccc1O
- IA [2]: inactive

Compound: COc1ccc(-c2cc(=O)c3ccccc3o2)cc1OC [3',4'-DIMETHOXYFLAVONE]
- MIC [1]: 6.3 µg/mL

Compound: COc1cc([C@H]2Oc3cc(-c4cc(=O)c5c(O)cc(O)cc5o4)ccc3O[C@@H]2CO)cc(OC)c1O
- MIC [1]: 8 µg/mL

Compound: COc1cc([C@H]2Oc3cc([C@@H]4CC(=O)c5c(OC(C)=O)cc(OC(C)=O)cc5O4)ccc3O[C@@H]2COC(C)=O)ccc1OC(C)=O
- MIC [1]: 1.6 µg/mL

Compound: O=c1cc(-c2ccc3c(c2)O[C@H](c2ccc(O)cc2)[C@@H](CO)O3)oc2cc(O)cc(O)c12
- IA [2]: inactive

Compound: COc1cc(OC)c2c(=O)cc(-c3ccc(OC)c(OC)c3)oc2c1
- IA [2]: inactive

Compound: O=c1cc(-c2ccc(O)c(O)c2)oc2cc(O)cc(O)c12
- IA [2]: inactive

Compound: COc1cc([C@H]2Oc3ccc(-c4cc(=O)c5c(O)cc(O)cc5o4)cc3O[C@@H]2CO)ccc1O
- MIC [1]: 3.1 µg/mL

Compound: O=c1cc(-c2ccc(O)c(O)c2)oc2cc(O)ccc12
- IA [2]: inactive

Compound: CCCOc1ccc(-c2cc(=O)c3ccccc3o2)cc1
- MIC [1]: 0.4 µg/mL

Compound: CCCCCCCCCOc1ccc(-c2cc(=O)c3ccccc3o2)cc1
- IA [2]: inactive

Compound: CCOc1ccc(-c2cc(=O)c3ccccc3o2)cc1
- MIC [1]: 1.6 µg/mL

Compound: O=c1cc(-c2ccccc2)oc2c(O)c(O)ccc12
- IA [2]: inactive

Compound: O=c1cc(-c2ccc(OCc3ccccc3)cc2)oc2ccccc12
- IA [2]: inactive

Compound: COc1cc([C@@H]2Oc3ccc4c(=O)cc(-c5ccccc5)oc4c3O[C@H]2CO)ccc1O
- MIC [1]: 1.9 µg/mL

Compound: COc1cc([C@H]2Oc3cc(-c4cc(=O)c5c(O)cc(O)cc5o4)ccc3O[C@@H]2CO)ccc1O [HYDNOCARPIN]
- MIC [1]: 0.1 µg/mL

Compound: CC(=O)Oc1ccc2c(=O)cc(-c3ccc(OC(C)=O)c(OC(C)=O)c3)oc2c1
- IA [2]: inactive
